Source: publication PMC8459971, “Evaluation of the hepatotoxicity of the novel GPR40 (FFAR1) agonist CPL207280 in the rat and monkey” (PLoS ONE, 2021)
pIC50: −log10 of the molar value. Several values for one entry are separate records, joined by “and”; a condition that tells them apart may be missing. Identical values can stand only once.

How the values were obtained:
[1] = test system: HepG2 cells; assay: Respiration in hepatocytes (Seahorse XF Mito stress test); format: cell-based, human; details: for OCR (Basal Oxygen Consumption rate) / ECAR (Extracellular Acidification Rate): replicates
[2] = target: T1, OAT1 (Homo sapiens, UniProt Q4U2R8); assay: Uptake transporter inhibition assay, OAT1; details: for Accumulation (counts per minute; CPM) HEK293FT-MOCK / Accumulation (counts per minute; CPM) HEK293FT-OAT1: OAT1;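 also: HEK293FT cells expressing OAT1 or mock, uptake of radiolabeled probe substrate at 37 °C in HBSS pH 7.4 with test compound or solvent, cell lysate read by liquid scintillation counting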
T1 sequence (Q4U2R8 1-563): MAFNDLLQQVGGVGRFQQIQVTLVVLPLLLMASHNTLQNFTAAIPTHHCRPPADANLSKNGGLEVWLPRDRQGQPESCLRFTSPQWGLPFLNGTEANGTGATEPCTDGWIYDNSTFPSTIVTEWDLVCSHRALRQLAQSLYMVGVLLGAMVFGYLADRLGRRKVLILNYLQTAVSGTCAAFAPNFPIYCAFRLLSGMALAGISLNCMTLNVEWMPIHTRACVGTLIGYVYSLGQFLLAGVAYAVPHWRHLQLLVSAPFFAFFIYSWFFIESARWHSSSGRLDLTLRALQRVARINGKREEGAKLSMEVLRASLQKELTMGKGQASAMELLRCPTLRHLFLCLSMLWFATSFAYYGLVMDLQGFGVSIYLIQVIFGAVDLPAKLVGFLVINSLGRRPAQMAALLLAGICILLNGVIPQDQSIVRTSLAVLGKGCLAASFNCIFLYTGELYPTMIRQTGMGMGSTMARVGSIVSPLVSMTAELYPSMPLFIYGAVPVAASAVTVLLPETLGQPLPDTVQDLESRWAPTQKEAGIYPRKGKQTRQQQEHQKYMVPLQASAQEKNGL
Procedure: For the uptake transporter inhibition assay, cells were washed twice with 100 μL of the appropriate buffer (HK, pH 7.4) for OATP1B1, followed by HBSS (pH 7.4) for (NTCP, OAT1, OAT2v1, OATP1A2, and OATP1B3). Uptake experiments were carried out at 37 ± 1°C in 50 μL of the respective buffer containing the probe substrate and the compound or solvent. […] After the experiment, cells were washed twice with 100 μL of cold appropriate buffer and lysed with 50 μL of 0.1 M NaOH. Radiolabeled probe substrate transport was determined by measuring an aliquot (35 μL) from each well for liquid scintillation counting.

[3] = target: T2, MRP4 (Homo sapiens, UniProt O15439); assay: Vesicular transport inhibition assay, MRP4; details: for Accumulation (counts per minute; CPM) with AMP / Accumulation (counts per minute; CPM) with ATP: MRP4;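 also: membrane vesicles with MRP4 incubated with compound and probe substrate plus 4 mM ATP, or AMP as passive-diffusion background, vesicular substrate uptake read by liquid scintillation counting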;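 as to Accumulation (counts per minute; CPM) with AMP: ATP 4 mM vs AMP background separates transporter uptake from diffusion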;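 as to Accumulation (counts per minute; CPM) with ATP: ATP 4 mM vs AMP background separates transporter uptake from diffusion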
T2 sequence (O15439 1-1325): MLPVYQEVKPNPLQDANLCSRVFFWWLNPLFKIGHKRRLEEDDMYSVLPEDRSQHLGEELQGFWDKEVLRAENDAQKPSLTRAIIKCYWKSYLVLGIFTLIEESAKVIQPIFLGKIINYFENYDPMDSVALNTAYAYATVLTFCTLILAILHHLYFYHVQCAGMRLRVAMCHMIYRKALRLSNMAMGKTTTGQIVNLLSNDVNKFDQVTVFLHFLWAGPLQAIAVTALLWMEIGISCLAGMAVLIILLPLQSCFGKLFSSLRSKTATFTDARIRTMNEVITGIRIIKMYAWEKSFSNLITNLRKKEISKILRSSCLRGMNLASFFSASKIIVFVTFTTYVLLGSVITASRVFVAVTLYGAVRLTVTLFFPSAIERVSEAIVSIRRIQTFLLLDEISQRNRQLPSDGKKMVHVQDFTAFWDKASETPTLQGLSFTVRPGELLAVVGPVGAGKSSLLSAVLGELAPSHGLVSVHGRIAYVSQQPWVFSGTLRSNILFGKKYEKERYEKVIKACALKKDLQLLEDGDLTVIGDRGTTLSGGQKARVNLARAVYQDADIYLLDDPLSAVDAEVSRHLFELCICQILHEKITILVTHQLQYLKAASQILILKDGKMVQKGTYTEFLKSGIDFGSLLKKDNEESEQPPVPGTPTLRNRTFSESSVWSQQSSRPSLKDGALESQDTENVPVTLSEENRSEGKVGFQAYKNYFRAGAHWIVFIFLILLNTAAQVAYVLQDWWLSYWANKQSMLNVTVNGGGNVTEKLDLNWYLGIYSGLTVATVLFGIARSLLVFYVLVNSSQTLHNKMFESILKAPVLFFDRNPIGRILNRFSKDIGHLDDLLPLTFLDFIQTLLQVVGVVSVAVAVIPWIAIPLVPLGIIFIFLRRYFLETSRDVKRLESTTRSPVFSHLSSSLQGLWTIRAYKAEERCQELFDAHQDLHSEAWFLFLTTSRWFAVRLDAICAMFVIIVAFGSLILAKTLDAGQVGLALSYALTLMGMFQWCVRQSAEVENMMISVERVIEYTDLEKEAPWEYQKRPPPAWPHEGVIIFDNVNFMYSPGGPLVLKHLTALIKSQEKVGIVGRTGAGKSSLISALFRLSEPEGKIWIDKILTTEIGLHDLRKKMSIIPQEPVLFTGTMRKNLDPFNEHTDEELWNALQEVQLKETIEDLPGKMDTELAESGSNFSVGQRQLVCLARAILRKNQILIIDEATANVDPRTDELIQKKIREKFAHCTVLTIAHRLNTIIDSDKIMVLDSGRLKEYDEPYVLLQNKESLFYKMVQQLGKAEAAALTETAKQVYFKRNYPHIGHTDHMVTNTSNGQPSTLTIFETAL
Procedure: In the vesicular transport inhibition assay (for BSEP, MRP) compounds were incubated with membrane vesicle preparations and the probe substrate. Incubations were carried out in the presence of 4 mM ATP or AMP to distinguish between transporter-mediated uptake and passive diffusion into the vesicles. For MRP2 and MRP3, reactions were carried out in the presence of 2 mM glutathione. Compounds were added to the reaction mixture in 0.75 μL of solvent (1% of the final incubation volume). […] Reactions were initiated by the addition of 25 μL of 12 mM MgATP (or 12 mM AMP in assay buffer as a background control) and preincubated separately. Reactions were quenched by the addition of 200 μL of ice-cold washing buffer and immediate filtration via glass fiber filters mounted on a 96-well plate (filter plate). The filters were washed (5 × 200 μL of ice-cold washing buffer), dried, and the amount of substrate inside the filtered vesicles was determined by liquid scintillation counting.

CC#C[C@@H](CC(=O)O)c1ccc(OCC(C)=C(C)C)cc1 [CPL207280]
OCR (Basal Oxygen Consumption rate) ([1]; HepG2, 10 uM): 1.0176 and 0.8931 and 1.143 | ECAR (Extracellular Acidification Rate) ([1]; HepG2, 30 uM): 0.995 and 1.079 and 1.004 | OCR (Basal Oxygen Consumption rate) ([1]; HepG2, 30 uM): 1.014 and 0.9586 and 1.1505 | ECAR (Extracellular Acidification Rate) ([1]; HepG2, 100 uM): 1.11 and 1.113 and 1.179 | OCR (Basal Oxygen Consumption rate) ([1]; HepG2, 100 uM): 1.005 and 0.9369 and 1.04 | EC50 of acidification of media (ECAR) ([1]; HepG2, Seahorse XF): absent | effect on ATP synthesis ([1]; HepG2, Seahorse XF): did not alter ATP synthesis | effect on oxygen consumption rate / basal respiration ([1]; HepG2, Seahorse XF): reduced basal and maximal respiration at the highest concentration of 100 μM | effect on respiration ([1]; hepatocytes, Seahorse XF, 100 μM): slight respiration inhibition | pIC50 [2]: 3.61 | fold less inhibitory potency than TAK-875, OAT1 [2]: at least 10 fold | Accumulation (counts per minute; CPM) HEK293FT-MOCK ([2]; conc 0.10 µM): 50 CPM and 53 CPM | Accumulation (counts per minute; CPM) HEK293FT-OAT1 ([2]; conc 0.10 µM): 3966 CPM and 4397 CPM | Accumulation (counts per minute; CPM) HEK293FT-MOCK ([2]; conc 1.00 µM): 48 CPM and 53 CPM | Accumulation (counts per minute; CPM) HEK293FT-OAT1 ([2]; conc 1.00 µM): 3796 CPM and 3875 CPM | Accumulation (counts per minute; CPM) HEK293FT-MOCK ([2]; conc 3.00 µM): 43 CPM | Accumulation (counts per minute; CPM) HEK293FT-OAT1 ([2]; conc 3.00 µM): 3567 CPM and 3805 CPM | Accumulation (counts per minute; CPM) HEK293FT-OAT1 ([2]; conc 10.00 µM): 3588 CPM and 3708 CPM | Accumulation (counts per minute; CPM) HEK293FT-MOCK ([2]; conc 30.00 µM): 36 CPM and 51 CPM | Accumulation (counts per minute; CPM) HEK293FT-OAT1 ([2]; conc 30.00 µM): 3509 CPM and 3520 CPM | Accumulation (counts per minute; CPM) HEK293FT-MOCK ([2]; conc 100.00 µM): 35 CPM and 46 CPM | Accumulation (counts per minute; CPM) HEK293FT-OAT1 ([2]; conc 100.00 µM): 2841 CPM and 2828 CPM | Accumulation (counts per minute; CPM) HEK293FT-MOCK ([2]; conc 300.00 µM): 36 CPM and 54 CPM | Accumulation (counts per minute; CPM) HEK293FT-OAT1 ([2]; conc 300.00 µM): 1655 CPM and 1827 CPM | pIC50 [3]: 3.88 | fold less inhibitory potency than TAK-875, MRP4 [3]: at least 10 fold | Accumulation (counts per minute; CPM) with AMP ([3]; conc 0.10 µM): 1154 CPM and 1110 CPM | Accumulation (counts per minute; CPM) with ATP ([3]; conc 0.10 µM): 5335 CPM and 5537 CPM | Accumulation (counts per minute; CPM) with AMP ([3]; conc 1.00 µM): 1207 CPM and 1074 CPM | Accumulation (counts per minute; CPM) with ATP ([3]; conc 1.00 µM): 5159 CPM and 5701 CPM | Accumulation (counts per minute; CPM) with AMP ([3]; conc 3.00 µM): 1157 CPM and 1113 CPM | Accumulation (counts per minute; CPM) with ATP ([3]; conc 3.00 µM): 5157 CPM and 5321 CPM | Accumulation (counts per minute; CPM) with AMP ([3]; conc 10.00 µM): 1132 CPM and 1046 CPM | Accumulation (counts per minute; CPM) with ATP ([3]; conc 10.00 µM): 4884 CPM and 5225 CPM | Accumulation (counts per minute; CPM) with AMP ([3]; conc 30.00 µM): 1054 CPM and 1003 CPM | Accumulation (counts per minute; CPM) with ATP ([3]; conc 30.00 µM): 4460 CPM and 4110 CPM | Accumulation (counts per minute; CPM) with AMP ([3]; conc 100.00 µM): 1090 CPM and 1013 CPM | Accumulation (counts per minute; CPM) with ATP ([3]; conc 100.00 µM): 3600 CPM and 3817 CPM | Accumulation (counts per minute; CPM) with AMP ([3]; conc 300.00 µM): 1018 CPM and 920 CPM | Accumulation (counts per minute; CPM) with ATP ([3]; conc 300.00 µM): 2078 CPM and 2196 CPM
